Measured values reported in PMC6981392, “Characterization of a Maltase from an Early-Diverged Non-Conventional Yeast Blastobotrys adeninivorans” (International Journal of Molecular Sciences, 2019).
Entries after “also recorded” stand apart in the source; their conditions may differ. Like-named read-outs stand apart in the source and are kept apart here.

Key:
[1] = system: B. adeninivorans CBS 8244; design: method as in earlier work; conditions: CBS-KNAW culture collection; cited from earlier work
[2] = system: α-glucosidase of A. niger; design: method as in doi:10.1271/bbb1961.55.2327; conditions: on maltose; cited from earlier work
BaAG2 [3] = target: T1, BaAG2 (Blastobotrys adeninivorans, UniProt Z9CO09ION3); test: Substrate specificity of BaAG2 on 100 mM sugars and 1 mM pNPG; format: biochemical; conditions: 100 mM sugars, pH 6.5, 30 °C
T1 sequence (Z9CO09ION3 1-580): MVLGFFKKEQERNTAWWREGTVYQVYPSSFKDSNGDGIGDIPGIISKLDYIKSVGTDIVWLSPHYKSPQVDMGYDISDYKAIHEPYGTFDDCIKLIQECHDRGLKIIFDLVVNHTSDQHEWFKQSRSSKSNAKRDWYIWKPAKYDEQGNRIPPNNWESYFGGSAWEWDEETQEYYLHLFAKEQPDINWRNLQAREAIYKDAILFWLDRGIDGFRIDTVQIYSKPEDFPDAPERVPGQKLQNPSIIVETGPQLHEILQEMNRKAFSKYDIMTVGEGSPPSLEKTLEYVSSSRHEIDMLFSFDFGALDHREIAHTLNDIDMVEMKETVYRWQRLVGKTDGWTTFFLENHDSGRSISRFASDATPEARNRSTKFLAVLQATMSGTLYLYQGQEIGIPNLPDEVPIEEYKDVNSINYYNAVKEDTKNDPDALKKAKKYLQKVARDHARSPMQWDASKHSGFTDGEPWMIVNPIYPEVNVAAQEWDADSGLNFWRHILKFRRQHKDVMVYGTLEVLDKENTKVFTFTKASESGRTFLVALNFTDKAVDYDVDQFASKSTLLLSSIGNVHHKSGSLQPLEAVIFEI
Method: Hydrolysis of pNPG was assayed as in [16, 40] according to the release of p-nitrophenol. 100 mM K-phosphate buffer (pH 6.5) was used and reactions were conducted at 30 °C if not stated otherwise. The purified enzyme was unstable if diluted therefore 5 g/L bovine serum albumin (BSA) was added to the dilution buffer as a protein stabilizer to retain its full catalytic activity. […] The content of the released glucose was determined spectrophotometrically as in [16, 47]. The activities (µmoles of glucose released per minute per mg of protein; U/mg) were calculated from initial velocities of the reaction. For kinetic analysis, initial rates of p-nitrophenol or glucose release from substrates were measured at four to seven concentrations ranging from 0.1–3.0 mM for pNPG and 2.5–250 mM for di- and trisaccharides. At least three independent measurements for each substrate and concentration were made. BaAG2 content in reaction mixtures ranged from 0.02 to 3.5 µg/mL. […] The theoretical Mw value of 67,901 Da for the kcat calculation was computed in ExPASy Proteomics Server (http://expasy.org).

[4] = system: extracellular α-glucosidase of Schizosaccharomyces pombe; conditions: on maltose; cited from earlier work
BaAG2 [5] = target: T1, BaAG2; test: Inhibition of pNPG hydrolysis by BaAG2
Method: (§1) 100 mM K-phosphate buffer (pH 6.5) was used and reactions were conducted at 30 °C if not stated otherwise. The purified enzyme was unstable if diluted therefore 5 g/L bovine serum albumin (BSA) was added to the dilution buffer as a protein stabilizer to retain its full catalytic activity. […] The content of the released glucose was determined spectrophotometrically as in [16, 47]. The activities (µmoles of glucose released per minute per mg of protein; U/mg) were calculated from initial velocities of the reaction. […] At least three independent measurements for each substrate and concentration were made.
The Ki values were calculated using enzyme kinetics module of the SigmaPlot (Systat Software, San Jose, CA, USA).

BaAG2 [6] = target: T1, BaAG2; test: Differential scanning fluorimetry (DSF) thermostability of BaAG2 with ligands; format: binding; conditions: 2 µM BaAG2, unliganded Tm 51 °C; 100 mM fructose, 50 mM palatinose, 50 mM glucose, 5 mM Tris, 5 mM acarbose; HEPES pH 7.0
Method: The reaction was conducted in 50 mM 4-(2-hydroxyethyl)-1-piperazineethanesulfonic acid) (HEPES) buffer (pH 7.0) with 150 mM NaCl. […] At least two independent experiments were performed with two technical replicates.

B. adeninivorans = test: Growth of B. adeninivorans on sugars (OD 600 nm); format: cell-based, Blastobotrys adeninivorans; conditions: YNB medium, 2 g/L sugar, 24 h, 37 °C
Method: Blastobotrys (Arxula) adeninivorans LS3 (CBS 8244) was kindly provided by Assoc. Prof. V. Passoth (SLU, Uppsala, Sweden). The yeast strain was grown on solid YPD medium (20 g/L peptone, 20 g/L glucose, 10 g/L yeast extract, 20 g/L agar) at 30 °C 24 h for harvesting the cells for genomic DNA extraction. E. coli DH5α (Thermo Fisher Scientific, Waltham, MA, USA) was used for DNA cloning and plasmid production. E. coli BL21 (DE3) was used for heterologous expression of BaAG2. The ability of B. adeninivorans to grow on sugars was assayed as in [12]. Yeast cells grown overnight on BD Difco YNB medium (Thermo Fisher Scientific, Waltham, MA, USA) without amino acids containing 2 g/L glucose were used as inoculum. […] The cells were incubated on Greiner 96-well flat-bottom transparent polystyrene microplates (Greiner Bio-One, Frickenhausen, Germany) in 200 µl under agitation for 24 h at 37 °C. Optical density of the culture at 600 nm was measured against inoculated medium without sugar at the beginning and end of the experiment using an Infinite M200 PRO microplate reader (Tecan Group Ltd., Männedorf, Switzerland) equipped with Tecan i-control v. 1.7 software from the same provider. Two independent experiments with two parallel measurements were conducted.

BaAG2 [7] = target: T1, BaAG2; test: Kinetics of hydrolysis of pNPG and sugars by BaAG2; conditions: for Vmax ± SD / kcat ± SD / Km: substrate hydrolysis, pH 6.5, 30 °C; for kcat ± SD: calculated from Vmax with Mw 67,901 Da; for Km: read-out: Km ± SD
Method: as §1

BaAG2 [8] = target: T1, BaAG2; test: TLC assay of panose hydrolysis by BaAG2; conditions: 50 mM panose, extended (22 h) reaction time
Method: The reaction samples were analyzed using TLC.
To visualize hydrolysis and polymerization products, the TLC analysis was conducted as in [16] on Silica Gel 60 F254 plates with concentrating zone (Merck, Darmstadt, Germany). 0.5 µl of the stopped reaction mixture were spotted onto the plate and sugars were separated with two runs in chloroform:acetic acid:water (6:7:1, v:v:v) [67]. For the analysis of products of polysaccharide degradation, 3 µl of the reaction mixtures were spotted. Sugars were visualized by immersion of the plates in aniline-diphenylamine reagent and subsequent heating of the dried plates at 100 °C [68].

BaAG2 [9] = target: T1, BaAG2; test: Degradation of glucose polymers by BaAG2 (glucose release, TLC); format: biochemical; conditions: polysaccharide 5 g/L, 20 µg/mL enzyme
Method: Polysaccharide concentration in the reaction mixture was 5 g/L, and 20 µg/mL of the enzyme was used. At desired time points (2 h, 24 h, 74/96 h) aliquots were withdrawn and heated to stop the reaction. A negative control containing 20 µg/mL BSA instead of the enzyme was incubated alongside. Concentration of released glucose was measured as described above and 3 µl of the samples were analysed on TLC. Maltase from S. cerevisiae (ScMAL62), amyloglycosidase from Aspergillus niger (Sigma-Aldrich, Merck, Darmstadt, Germany) and α-amylase from Aspergillus oryzae (Sigma-Aldrich, Merck, Darmstadt, Germany) were reacted with tested glucose polymers for comparison.

OC[C@H]1O[C@H](O[C@H]2[C@H](O)[C@@H](O)C(O)O[C@@H]2CO)[C@H](O)[C@@H](O)[C@@H]1O (mixture of isomers) [Maltose]
assimilation by B. adeninivorans CBS 8244 [1]: assimilates
Catalytic constant (kcat) [2]: 144 s⁻¹
hydrolysis by BaAG2 (BaAG2 [3]): could hydrolyze
kcat [4]: 709 s⁻¹

C[C@H]1O[C@H](O[C@H]2[C@H](O)[C@@H](O)[C@@H](O[C@H]3[C@H](O)[C@@H](O)C(O)O[C@@H]3CO)O[C@@H]2CO)[C@H](O)[C@@H](O)[C@@H]1N[C@H]1C=C(CO)[C@@H](O)[C@H](O)[C@H]1O (stereo partly shown) [Acarbose, reference compound]
Ki (BaAG2 [5]; read-out: Ki ± SD, values marked * are given in µM, pH 6.5, 30 °C): 0.83 ± 0.01 µM
Ki (BaAG2 [5]; read-out: Ki ± SD, values marked * are given in µM, pH 6.5, 30 °C, listed as acarbose): 0.8 µM

O=C(CO)[C@@H](O)[C@H](O)[C@H](O)CO [Fructose]
Inhibition Mode (BaAG2 [5]): Competitive

OC[C@H]1OC(O)[C@H](O)[C@@H](O)[C@@H]1O (stereo partly shown) [Glucose]
Inhibition Mode (BaAG2 [5]): Competitive
increase of Tm in the presence of a ligand (BaAG2 [6]): 4.4 °C

OC[C@H]1O[C@H](OC[C@H]2OC(O)[C@H](O)[C@@H](O)[C@@H]2O)[C@H](O)[C@@H](O)[C@@H]1O (stereo partly shown) [Isomaltose]
Inhibition Mode (BaAG2 [5]): Competitive
hydrolysis by BaAG2 (BaAG2 [3]): not hydrolyzed
hydrolysis by BaAG2 (BaAG2 [3]; listed as isomaltose): could not hydrolyze
growth of B. adeninivorans on sugar (B. adeninivorans): new growth substrates

OC[C@H]1O[C@@](CO)(O[C@H]2O[C@H](CO)[C@@H](O)[C@H](O)[C@H]2O)[C@@H](O[C@H]2O[C@H](CO)[C@@H](O)[C@H](O)[C@H]2O)[C@@H]1O [Melezitose]
Vmax ± SD (BaAG2 [7]): 231.0 ± 31.8 µmol/mg/min
kcat ± SD (BaAG2 [7]): 261.4 ± 36.1 s⁻¹
assimilation by B. adeninivorans CBS 8244 [1]: assimilates
hydrolysis by BaAG2 (BaAG2 [3]): could hydrolyze

OC[C@H]1O[C@H](OC[C@H]2OC(O)(CO)[C@@H](O)[C@@H]2O)[C@H](O)[C@@H](O)[C@@H]1O (stereo partly shown) [Palatinose]
hydrolysis by BaAG2 (BaAG2 [3]): not hydrolyzed; also recorded: could not hydrolyze
growth of B. adeninivorans on sugar (B. adeninivorans): new growth substrates

OC[C@H]1O[C@@](CO)(O[C@H]2O[C@H](CO)[C@@H](O)[C@H](O)[C@H]2O)[C@@H](O)[C@@H]1O [Sucrose, α-D-Glc-(1→2)-β-D-Fru]
assimilation by B. adeninivorans CBS 8244 [1]: assimilates
hydrolysis by BaAG2 (BaAG2 [3]): could hydrolyze

O=C(CO)[C@@H](O[C@H]1O[C@H](CO)[C@@H](O)[C@H](O)[C@H]1O)[C@H](O)[C@H](O)CO [Turanose]
Km (BaAG2 [7]): 45.2 ± 6 mM
Vmax ± SD (BaAG2 [7]): 190.1 ± 10.4 µmol/mg/min
kcat ± SD (BaAG2 [7]): 215.1 ± 11.9 s⁻¹
hydrolysis by BaAG2 (BaAG2 [3]): could hydrolyze
growth of B. adeninivorans on sugar (B. adeninivorans): new growth substrates

O=[N+]([O-])c1ccc(O[C@@H]2O[C@H](CO)[C@H](O)[C@H](O)[C@H]2O)cc1 [pNPG, p-nitrophenyl-α-D-glucopyranoside, reference compound]
Vmax (BaAG2 [7]): over 750 U/mg
Km (BaAG2 [7]): 0.76 ± 0.03 mM
Vmax ± SD (BaAG2 [7]): 751.3 ± 14.5 µmol/mg/min
kcat ± SD (BaAG2 [7]): 850.2 ± 16.4 s⁻¹
hydrolysis by BaAG2 (BaAG2 [3]): could hydrolyze

OC[C@H]1O[C@H](OC[C@H]2O[C@H](O[C@H]3[C@H](O)[C@@H](O)C(O)O[C@@H]3CO)[C@H](O)[C@@H](O)[C@@H]2O)[C@H](O)[C@@H](O)[C@@H]1O (stereo partly drawn) [panose, α-D-Glc-(1→6)-α-D-Glc-(1→4)-D-Glc]
hydrolysis by BaAG2 (BaAG2 [8]): not hydrolyzed

OC[C@H]1O[C@H](O[C@H]2O[C@H](CO)[C@@H](O)[C@H](O)[C@H]2O)[C@H](O)[C@@H](O)[C@@H]1O [trehalose]
assimilation by B. adeninivorans CBS 8244 [1]: assimilates

CO[C@H]1O[C@H](CO)[C@@H](O)[C@H](O)[C@H]1O [α-MG, α-methylglucoside, reference compound]
Inhibition Mode (BaAG2 [5]): Competitive
assimilation by B. adeninivorans CBS 8244 [1]: assimilates
hydrolysis by BaAG2 (BaAG2 [3]): could not hydrolyze
hydrolysis by BaAG2 (BaAG2 [3]; listed as α-methylglucoside): not hydrolyzed

Maltotriose
hydrolysis by BaAG2 (BaAG2 [3]): could hydrolyze
growth of B. adeninivorans on sugar (B. adeninivorans): new growth substrates

Maltulose
Km (BaAG2 [7]): 7.8 ± 1 mM
Vmax ± SD (BaAG2 [7]): 52.2 ± 1.8 µmol/mg/min
kcat ± SD (BaAG2 [7]): 59.1 ± 2.1 s⁻¹
hydrolysis by BaAG2 (BaAG2 [3]): could hydrolyze
growth of B. adeninivorans on sugar (B. adeninivorans): new growth substrates

amylopectin
glucose released (BaAG2 [9]; by 24 h): 0.1 g/L
glucose released (BaAG2 [9]; by 72 h): 0.3 g/L
